Reference: ChEMBL document CHEMBL1201862, “PubChem BioAssay data set” (2004)
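All cell lines were grown in 96-well plates and treated with compound for 48 hours. Here, GI50 denotes the concentration required for 50% inhibition of growth.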 The source made the active and inactive calls. Cut-off read from the data, not from the text of the source: active = GI50 up to about 1.1 µM and inactive = higher.

Tests used:
Assay in all cases: inhibition of tumour cell growth, NCI panel, 48 h
K562 = test system: K562
MDA-MB-231 = test system: MDA-MB-231
ACHN = test system: ACHN
IGROV-1 = test system: IGROV-1
COLO 205 = test system: COLO 205
A549 = test system: A549
HCT-15 = test system: HCT-15
Malme-3M = test system: Malme-3M
786-0 = test system: 786-0
SN12C = test system: SN12C
CCRF-CEM = test system: CCRF-CEM
OVCAR-5 = test system: OVCAR-5
A498 = test system: A498
SNB-75 = test system: SNB-75
SK-MEL-5 = test system: SK-MEL-5
UACC-62 = test system: UACC-62
SF-295 = test system: SF-295
HOP-92 = test system: HOP-92
NCI-H522 = test system: NCI-H522
SK-MEL-2 = test system: SK-MEL-2

SMILES | GI50 (K562) | GI50 (MDA-MB-231) | GI50 (ACHN) | GI50 (IGROV-1) | GI50 (COLO 205) | GI50 (A549) | GI50 (HCT-15) | GI50 (Malme-3M) | GI50 (786-0) | GI50 (SN12C) | GI50 (CCRF-CEM) | GI50 (OVCAR-5) | GI50 (A498) | GI50 (SNB-75) | GI50 (SK-MEL-5) | GI50 (UACC-62) | GI50 (SF-295) | GI50 (HOP-92) | GI50 (NCI-H522) | GI50 (SK-MEL-2)
C=CCC(C)C12CCNC(Cc3ccc(O)cc31)C2C (stereo not given) | 41.3 µM (inactive) | > 100 µM (inactive) | > 100 µM (inactive) | > 100 µM (inactive) | > 100 µM (inactive) | > 100 µM (inactive) | > 100 µM | > 100 µM (inactive) | > 100 µM (inactive) | > 100 µM (inactive) | > 100 µM (inactive) | > 100 µM (inactive) | 43.6 µM (inactive) | > 100 µM (inactive) | > 100 µM (inactive) | > 100 µM (inactive) | > 100 µM (inactive) | 56.1 µM (inactive) | – | –
COc1ccc(NC(=O)/C(=C/c2ccccc2)C(C)=O)cc1 | 12.5 µM (inactive) | – | 20.7 µM (inactive) | 17.5 µM (inactive) | 19.1 µM (inactive) | 22.2 µM (inactive) | 13.2 µM | 16.5 µM (inactive) | 14.8 µM (inactive) | 14.4 µM (inactive) | 6.12 µM (inactive) | 19.6 µM (inactive) | 21.1 µM (inactive) | 7.11 µM (inactive) | 13.9 µM (inactive) | 7.89 µM (inactive) | 14.2 µM (inactive) | 15.8 µM (inactive) | 1.73 µM (inactive) | 14.6 µM (inactive)
Cc1nc2ccccc2nc1CC(=O)C(=O)Nc1ccc(Cl)cc1Cl | > 100 µM (inactive) | – | > 100 µM (inactive) | > 100 µM (inactive) | > 100 µM (inactive) | > 100 µM (inactive) | > 100 µM | > 100 µM (inactive) | > 100 µM (inactive) | > 100 µM (inactive) | > 100 µM (inactive) | > 100 µM (inactive) | > 100 µM (inactive) | > 100 µM (inactive) | > 100 µM (inactive) | > 100 µM (inactive) | > 100 µM (inactive) | > 100 µM (inactive) | 57.4 µM (inactive) | > 100 µM (inactive)
Cc1nc(N)nc(N)c1CCCCc1ccccc1 | 0.841 µM (active) | – | 9.2 µM (inactive) | 5.41 µM (inactive) | 8.43 µM (inactive) | 3.67 µM (inactive) | 5.97 µM | 13.3 µM (inactive) | 4.52 µM (inactive) | 22.6 µM (inactive) | 3.72 µM (inactive) | 6.93 µM (inactive) | 18.2 µM (inactive) | 47 µM (inactive) | 4.39 µM (inactive) | 5.28 µM (inactive) | 6.65 µM (inactive) | 22.5 µM (inactive) | 10.2 µM (inactive) | 16.7 µM (inactive)
NC(=O)c1c(-c2ccccc2)c(-c2ccccc2)cc2c(=O)c3ccccc3[nH]c12 | 30.3 µM (inactive) | – | 16.4 µM (inactive) | 22.1 µM (inactive) | 29 µM (inactive) | 23.8 µM (inactive) | 29.8 µM | 17.9 µM (inactive) | 8.53 µM (inactive) | 40 µM (inactive) | 31.4 µM (inactive) | 65.8 µM (inactive) | 19.4 µM (inactive) | 23.6 µM (inactive) | 13.7 µM (inactive) | 25.5 µM (inactive) | 40.4 µM (inactive) | 24.9 µM (inactive) | 5.85 µM (inactive) | 19.9 µM (inactive)
O=c1cc(NCC2CCCCC2)[nH]c(=O)[nH]1 | > 100 µM (inactive) | > 100 µM (inactive) | > 100 µM (inactive) | > 100 µM (inactive) | > 100 µM (inactive) | > 100 µM (inactive) | > 100 µM | > 100 µM (inactive) | > 100 µM (inactive) | > 100 µM (inactive) | > 100 µM (inactive) | > 100 µM (inactive) | > 100 µM (inactive) | > 100 µM (inactive) | > 100 µM (inactive) | – | > 100 µM (inactive) | 95.1 µM (inactive) | – | –
NC(=S)N/N=C(/CCN1CCCC1)CC(C1=C(O)C2=CCCCC2OC1=O)c1ccccc1 (stereo not given) | > 100 µM (inactive) | – | > 100 µM (inactive) | > 100 µM (inactive) | 54.1 µM (inactive) | > 100 µM (inactive) | > 100 µM | > 100 µM (inactive) | > 100 µM (inactive) | > 100 µM (inactive) | 80 µM (inactive) | > 100 µM (inactive) | > 100 µM (inactive) | > 100 µM (inactive) | > 100 µM (inactive) | > 100 µM (inactive) | > 100 µM (inactive) | 32.3 µM (inactive) | > 100 µM (inactive) | > 100 µM (inactive)
Nc1c(-c2nc3ccccc3[nH]2)sc(=S)n1-c1ccccc1 | 53.8 µM (inactive) | – | 18.4 µM (inactive) | > 100 µM (inactive) | > 100 µM (inactive) | > 100 µM (inactive) | > 100 µM | 70.8 µM (inactive) | 61.2 µM (inactive) | > 100 µM (inactive) | 26.1 µM (inactive) | > 100 µM (inactive) | > 100 µM (inactive) | 44.8 µM (inactive) | > 100 µM (inactive) | 13.5 µM (inactive) | 72.8 µM (inactive) | > 100 µM (inactive) | 77.3 µM (inactive) | > 100 µM (inactive)
COc1ccc(-c2c3ccccc3c(-c3ccc(OC)cc3)c3ccccc23)cc1 | > 100 µM (inactive) | – | > 100 µM (inactive) | > 100 µM (inactive) | > 100 µM (inactive) | > 100 µM (inactive) | > 100 µM | > 100 µM (inactive) | > 100 µM (inactive) | > 100 µM (inactive) | > 100 µM (inactive) | > 100 µM (inactive) | > 100 µM (inactive) | 29.5 µM (inactive) | > 100 µM (inactive) | > 100 µM (inactive) | > 100 µM (inactive) | > 100 µM (inactive) | > 100 µM (inactive) | > 100 µM (inactive)
COc1ccc(C(=O)/C=C2\Nc3cccnc3N\C2=C/C(=O)c2ccc(OC)cc2)cc1 | 57.9 µM (inactive) | 13.5 µM (inactive) | 17.7 µM (inactive) | 5.11 µM (inactive) | 60.5 µM (inactive) | 15.6 µM (inactive) | 32.1 µM | 11.7 µM (inactive) | 2.17 µM (inactive) | 12.2 µM (inactive) | > 100 µM (inactive) | 42.3 µM (inactive) | > 100 µM (inactive) | – | 25.1 µM (inactive) | 17.3 µM (inactive) | 16.9 µM (inactive) | 53.1 µM (inactive) | – | 23.7 µM (inactive)
CC1OC(n2cc(F)c(=O)[nH]c2=O)C=CC1O (stereo not given) | > 57.8 µM (inactive) | – | > 100 µM (inactive) | > 100 µM (inactive) | > 100 µM (inactive) | > 100 µM (inactive) | > 100 µM | > 100 µM (inactive) | > 100 µM (inactive) | > 100 µM (inactive) | > 51.3 µM (inactive) | > 100 µM (inactive) | > 100 µM (inactive) | > 100 µM (inactive) | > 100 µM (inactive) | > 100 µM (inactive) | > 100 µM (inactive) | > 100 µM (inactive) | > 100 µM (inactive) | > 100 µM (inactive)
